# Like-named read-outs stand apart in the source and are kept apart here.
# How the values were obtained:
# [1] = cited from earlier work
# [2] = cited from earlier work; remark: listed apart in the source
# [3] = cited from earlier work; remark: listed apart in the source
# [4] = Fraction of ketamine in the neutral state at various pHs; type: physicochemical; details: mother's milk, pH about 7.2-7.4, estimated from Table I
# orosomucoid = details: human blood; cited from earlier work
# [5] = cited from earlier work; remark: listed apart in the source
smiles,measurement,setting,value
N=C(N)NCCC[C@H](N)C(=O)O [Arginine],Log P,[1],−1.7
N[C@@H](Cc1c[nH]cn1)C(=O)O [Histidine],pKa,[2],9.1
CNC1(c2ccccc2Cl)CCCCC1=O (stereo not shown) [Ketamine],Fraction of neutral ketamine,[3]; pH 7.1,28.0%
same,Fraction of neutral ketamine,[3]; pH 7.4,44.3%
same,Fraction of neutral ketamine,[3]; pH 7.5,50.0%
same,neutral fraction of ketamine in milk,[4],30-40%
NCCCC[C@H](N)C(=O)O [Lysine],Log P,[1],−3.2
O=C(O)[C@@H]1CCCN1 [Proline],Log P,[1],−2.6
Cc1ncc(CO)c(CO)c1O [Pyridoxine],pKa,[2],8.7
Cc1cc2nc3c(=O)[nH]c(=O)nc-3n(C[C@H](O)[C@H](O)[C@H](O)CO)c2cc1C [Riboflavin],Log P,[1],−0.92
CN[C@H]1CC[C@@H](c2ccc(Cl)c(Cl)c2)c2ccccc21 [Sertraline],Log P,[1],5.10
same,bound to orosomucoid,orosomucoid,95%
same,bound in mother's milk,[5],about 80%
NCCS(=O)(=O)O [Taurine],Log P,[1],−1.9
same,pKa,[2],9.0
same,pKa,[2]; room temperature,about 9
Cc1ncc(C[n+]2csc(CCO)c2C)c(N)n1 [Thiamine],Log P,[1],−3.1
same,Log P,[1]; listed as thiamine,~−3
"CNCCC(Oc1ccc(C(F)(F)F)cc1)c1ccccc1 (stereo not shown) [fluoxetine, reference compound]",pKa,[2]; room temperature,about 10.3
